Results on 111 compounds are retold here after a melting point compilation (Tetko et al.).

Consider `Cc1nc2ccccc2c(C(=O)O)c1O`, for which the melting point (in general, the temperature, or range, at which the solid turns liquid) worked out at 200 °C.

For `C/C=C/C=C(C)/C=N/Nc1ccc([N+](=O)[O-])cc1[N+](=O)[O-]`, the melting point lay in the range of 198 to 200 °C.

Regarding `NC1c2ccccc2CC1O` (stereo unspecified), the melting point is 117 to 121 °C.

The compound `CCCCCCl` gave a melting point of -60 °C.

Turning to `CNCc1ccc(-c2ncccn2)cc1`, the melting point is 49.5 to 54.9 °C.

In the case of `O=[N+]([O-])c1ccccc1/C(O)=C(/C(=N\O)c1ccccc1)c1ccccc1`, the melting point is 164 °C.

In turn, `CCNCCS(=O)(=O)c1ccc(C)cc1` registered a melting point of 42 to 45 °C.

On to `Clc1nc(Cl)c(Cl)c(Cl)n1`, for which the melting point turned out to be 69 °C.

Compound `CC(=O)Nc1ccc(N(Nc2ccccc2)C(C)=O)cc1` came in with a melting point of 199 °C.

The compound `C=C(C)C(=O)OCCN(C)C` came in with a melting point of -30 °C.

On to `FC1=C(F)C(F)(F)C1(F)F`, for which the melting point was -60 °C.

`CC12CCC(C(CO)C1=O)C2(C)C` (stereo unspecified): the melting point turned out to be 138 °C.

In turn, `COc1ccc(-c2csc(/C(C#N)=C\c3ccco3)n2)cc1` had a melting point of 115 °C.

The compound `N#CC1C(=O)CC(=O)CC1c1ccccc1` (stereo unspecified) displayed a melting point of 177 °C.

Turning to `Cc1ccc(N=Nc2ccc(N(C)C)cc2)cc1`, the melting point was in the range of 165 to 167 °C.

`COc1ccc2oc(C(=O)O)cc2c1` showed a melting point of 212 to 214 °C.

Compound `CCC/C=C/CCCCCC` displayed a melting point of -63.7 °C.

`Cc1nc(-c2ccc(CO)s2)cs1` registered a melting point of 67 to 69 °C.

Regarding `CC(C)(c1ccc(OC(=O)Cl)cc1)c1ccc(OC(=O)Cl)cc1`, the melting point fell in the range of 90 to 95 °C.

Compound `COc1cc(C(=O)NS(=O)(=O)c2ccccc2C)ccc1Cc1cn(C)c2ccc(NC(=O)OC3CCCC3)cc12` registered a melting point of 138 °C.

As to `O=C(O)CCCn1c(C(F)(F)F)nc2ccccc21`, the melting point was 143 to 145 °C.

As for `CS(=O)(=O)c1ccc2ccn(O)c2c1`, the melting point was 174 to 176 °C.

On to `FC(F)(F)C(F)(Cl)C(Cl)(Cl)C(F)(F)F` (stereo unspecified), for which the melting point worked out at 4 °C.

In turn, `O=C(O)C(F)F` returned a melting point of -1 °C.

In the case of `CCN(CC)c1ccc(N=C=S)cc1`, the melting point worked out at 32 °C.

`O=Cc1ccccc1OCc1c(Cl)cccc1Cl` yielded a melting point of 109 to 112 °C.

Compound `N#CCC(N)=S` had a melting point of 113 to 119 °C.

In turn, `CC=CC1=C(C(=O)O)N2C(=O)C(NC(=O)C(N)c3ccc(O)cc3)C2SC1` (stereo unspecified) yielded a melting point of 222 °C.

Compound `O=C(CNc1cccc([N+](=O)[O-])c1)c1ccccc1` gave a melting point of 169 °C.

For the compound `CC(CCl)OP(=O)(OC(C)CCl)OC(C)CCl` (stereo unspecified), the melting point is -40 °C.

`Fc1cccc(-c2cccc(F)c2)c1` returned a melting point of 8 °C.

`O=C(CBr)c1ccc2c(c1)OCCCO2`: the melting point lay within 78 to 80 °C.

As to `Cc1nccn1C`, the melting point lay within 37 to 39 °C.

Take `CCN(CC)C(=O)c1ccccc1`: the melting point turned out to be 30 °C.

As to `FC(F)(F)C(F)(F)C(F)(F)C(F)(F)OC(F)(F)C(F)(F)C(F)(F)C(F)(F)F`, the melting point was -100 °C.

`CN(C)C(=O)C(c1ccccc1)C(O)c1ccccc1` (stereo unspecified) showed a melting point of 176 °C.

In turn, `Cc1cc(C)n(C(=O)CC#N)n1` registered a melting point of 120 °C.

Compound `O=C1OC(c2ccccc2)=N/C1=C\c1cccc(/C=C2\N=C(c3ccccc3)OC2=O)c1` had a melting point of 247 °C.

The compound `Nc1cccc(Cn2cncn2)c1` had a melting point of 88 to 89 °C.

`COC(=O)CCC(C)C1CCC2C3C(O)C(O)C4CC(OC(C)=O)CCC4(C)C3CC(OC(C)=O)C12C` (stereo unspecified) gave a melting point of 175 to 177 °C.

`CCn1c2c(c3cc(OC)ccc31)CCc1cc(OC)ccc1-2` displayed a melting point of 145 to 147 °C.

For `O=[N+]([O-])c1ncccc1Cl`, the melting point came to 91 °C.

In turn, `NC(Cc1cc(F)ccc1F)C(=O)O` (racemic) yielded a melting point of 252 to 253 °C.

`CCCc1ccc(OCC(=O)N2CCN(C(=O)COc3ccc(CCC)cc3OC)CC2)c(OC)c1`: the melting point came out at 128 °C.

For the compound `c1ccc2c(c1)ccc1c3ccccc3ccc21`, the melting point was found to be 258 °C.

As for `O=C(NC1Cc2ccccc21)c1ccccc1` (stereo unspecified), the melting point was determined as 157 °C.

`O=CC1CC=CCC1` (stereo unspecified) registered a melting point of 2 °C.

The compound `CC(C)(C#N)N=NC(C)(C)C#N` gave a melting point of 102 °C.

`COc1cc(CCN)cc(OC)c1OC` gave a melting point of 35.5 °C.

In the case of `c1ccc(SCSc2ccccc2)cc1`, the melting point was 37 °C.

On to `CCCCCCCCCCCCN1c2ccccc2C(C)(C)C12C=Cc1cc([N+](=O)[O-])ccc1O2` (stereo unspecified), for which the melting point was determined as 109 °C.

`O=C=NC12CC3CC(CC(C3)C1)C2` returned a melting point of 144 to 146 °C.

Compound `CCOC(=O)C=C(C)N` displayed a melting point of 33 to 35 °C.

`OCC(F)(F)C(F)(F)C(F)(F)C(F)(F)C(F)(F)C(F)(F)CO` had a melting point of 80 to 83 °C.

Turning to `N#Cc1c[nH]nc1N`, the melting point is 175 °C.

`CC(C)NCC(O)COc1cccc2ccccc12` (stereo unspecified) came in with a melting point of 162 °C.

Compound `CC(C)(C)OC(=O)N1CCN(c2ccc(CO)cc2)CC1` returned a melting point of 109 to 111 °C.

For `COC(=O)c1cc(O)no1`, the melting point is 159 to 160 °C.

Regarding `NC1C2CN(c3nc4c(cc3F)c(=O)c(C(=O)O)cn4-c3ccc(F)cc3F)CC12` (stereo unspecified), the melting point is 246 °C.

As for `Nc1ncc(Cl)cc1Br`, the melting point amounted to 84 °C.

Compound `Clc1ccc2nc(Cl)c(Cl)nc2c1` registered a melting point of 143 to 148 °C.

`FC(F)(F)c1nc(C(F)(F)F)nc(C(F)(F)F)n1` gave a melting point of -24.8 °C.

As to `Cc1ccc(C(=O)CC#N)cc1`, the melting point came to 102 °C.

`C#CC1(O)CCC2(C)C(CCC3C2CCC2(C)C3CCC2(C)O)C1` (stereo unspecified) returned a melting point of 190 °C.

The compound `O=C(c1ccccc1)c1ccc2c3c(cccc13)CC2` showed a melting point of 101 °C.

Turning to `O=C(C=Cc1ccc(-c2ccccc2[N+](=O)[O-])o1)c1ccco1`, the melting point fell in the range of 168 to 169 °C.

With `Nc1nc(O)nc(C23CC4CC(CC(C4)C2)C3)n1`, the melting point was determined as 340 °C.

Regarding `CCCCCCCCCCCCCCCCCCCCCO`, the melting point was 68 to 71 °C.

Compound `CCC1CCC(C)CC1` (stereo unspecified) had a melting point of -80.8 °C.

In the case of `Nc1c(O)cccc1[N+](=O)[O-]`, the melting point was 216 °C.

As to `O=C(OOC(=O)c1ccccc1)c1ccccc1`, the melting point is 105 °C.

The compound `CCCCCCCCCCCCCCCCC#N` yielded a melting point of 34 °C.

`CC(=O)Nc1cc(F)ccc1C(=O)O` registered a melting point of 212 to 216 °C.

In turn, `CN1CCc2c(sc(N)c2C#N)C1` displayed a melting point of 192 to 194 °C.

As for `O=[N+]([O-])c1ccsc1Cl`, the melting point is 51 to 52 °C.

`Cc1c(C(=O)O)cccc1[N+](=O)[O-]`: the melting point stood at 184 °C.

On to `S=C=Nc1ccc2c(c1)OCCO2`, for which the melting point was 64 to 66 °C.

Consider `O=Cc1cc2cccnc2s1`, for which the melting point fell in the range of 142 to 143 °C.

In the case of `O=CN(C=O)C=O`, the melting point fell in the range of 100 to 101 °C.

`S=C(NCC(c1ccccc1)c1ccccc1)Nc1ccccc1` displayed a melting point of 171 °C.

For the compound `CCOC(=O)CCCOc1ccc(Cl)cc1C`, the melting point was -1 °C.

In the case of `CSC(SC)=C(C#N)C(=O)NCc1ccccc1`, the melting point is 81 °C.

Take `OC1CN(C(c2ccccc2)c2ccccc2)C1`: the melting point is 106 to 111 °C.

For the compound `CCCCCCCCCCCCOc1ccccc1OCCCCCCCCCCCC`, the melting point is 45 to 48 °C.

For `O=C(Nc1ccccc1SC(=O)c1ccccc1)c1ccccc1`, the melting point was found to be 152 °C.

Turning to `O=C(O)c1ccc(C(F)(F)F)cc1C(=O)O`, the melting point was 151 °C.

For the compound `O=Cc1cc(I)c(O)c(I)c1`, the melting point was 201 °C.

`COP(=S)(OC)Oc1cc(Cl)c(Cl)cc1Cl` displayed a melting point of 41 °C.

Turning to `Oc1ccccc1/C=N/n1c(-c2ccccc2)n[nH]c1=S`, the melting point lay within 209 to 210 °C.

Turning to `CC(=O)NCCc1ccccc1[N+](=O)[O-]`, the melting point came to 94 °C.

`CCCCCCCCCCCCCCCCC(C)CC` (stereo unspecified) registered a melting point of 8 °C.

In turn, `Cc1ccc(N2CCNCC2)cc1` returned a melting point of 29 to 34 °C.

As for `O=C(O)c1cc(Br)cc(Br)c1`, the melting point was 224 to 226 °C.

On to `CC1(C)C(C=C(Cl)Cl)C1C(=O)OC(C#N)c1ccc(F)c(Oc2ccccc2)c1` (stereo unspecified), for which the melting point stood at 93.5 °C.

Compound `COc1ccc(S(=O)(=O)Cl)cc1` registered a melting point of 40 to 42 °C.

For the compound `CC(=O)c1ccc(C2CC2Cl)cc1` (stereo unspecified), the melting point is 45 °C.

In turn, `Cc1ccc(S(=O)(=O)NCCN(CCN(CCNS(=O)(=O)c2ccc(C)cc2)S(=O)(=O)c2ccc(C)cc2)S(=O)(=O)c2ccc(C)cc2)cc1` showed a melting point of 112 °C.

On to `CC1OC(n2cc(F)c(=O)[nH]c2=O)C(O)C1O` (stereo unspecified), for which the melting point is 190 °C.

`O=C(CC(C(=O)c1ccccc1)C(CC(=O)c1ccccc1)C(=O)c1ccccc1)c1ccccc1` (stereo unspecified) came in with a melting point of 169 °C.

As to `CCOC(=O)c1c(C)n(OC)c2ccc3nonc3c12`, the melting point was 147 to 149 °C.

Regarding `CCOc1ccccc1F`, the melting point was -16.7 °C.

Turning to `O=Cc1ccc2[nH]ccc2c1`, the melting point is 98 °C.

`Cc1cc(C)n2nc(N)c(/N=N/c3cccc([N+](=O)[O-])c3)c2n1` returned a melting point of 263 °C.

On to `COC(=O)C1CCCc2c1[nH]c1ccc(OC)cc21` (stereo unspecified), for which the melting point was 92 °C.

Consider `O=C(O)CSc1ccccc1C(=O)O`, for which the melting point is 218 °C.

In turn, `CC(=O)c1c(C(C)C)cc(C(C)C)cc1C(C)C` gave a melting point of 87 °C.

As to `OCc1csc(-c2ccccc2)n1`, the melting point lay within 65 to 69 °C.

In turn, `COc1ccc(C=C2N=C(c3ccccc3)OC2=O)cc1` returned a melting point of 151 to 152 °C.

For `CCC(O)(CC)C(=O)O`, the melting point was 78 to 82 °C.

Consider `CC(C)(C)OC(=O)N1CCCC[C@@H]1C(=O)O`, for which the melting point was in the range of 118 to 122 °C.

Compound `CC(C)C1CCC(Cc2ccc(Cl)cc2)C1(O)Cn1cncn1` (stereo unspecified) had a melting point of 89 °C.
